The first assay has as its target 5-hydroxytryptamine receptor 1E (Homo sapiens, UniProt P28566). The assay is described as follows: Displacement of [3H]5-HT from human 5-HT1E receptor expressed in HEK cells after 90 mins by microbeta scintillation counting analysis. The format is cell-based. (In general: Loss of bound radioactivity is the signal in a displacement assay; it reports binding, not function.)
Sequence of 5-hydroxytryptamine receptor 7 (P34969 whole entry): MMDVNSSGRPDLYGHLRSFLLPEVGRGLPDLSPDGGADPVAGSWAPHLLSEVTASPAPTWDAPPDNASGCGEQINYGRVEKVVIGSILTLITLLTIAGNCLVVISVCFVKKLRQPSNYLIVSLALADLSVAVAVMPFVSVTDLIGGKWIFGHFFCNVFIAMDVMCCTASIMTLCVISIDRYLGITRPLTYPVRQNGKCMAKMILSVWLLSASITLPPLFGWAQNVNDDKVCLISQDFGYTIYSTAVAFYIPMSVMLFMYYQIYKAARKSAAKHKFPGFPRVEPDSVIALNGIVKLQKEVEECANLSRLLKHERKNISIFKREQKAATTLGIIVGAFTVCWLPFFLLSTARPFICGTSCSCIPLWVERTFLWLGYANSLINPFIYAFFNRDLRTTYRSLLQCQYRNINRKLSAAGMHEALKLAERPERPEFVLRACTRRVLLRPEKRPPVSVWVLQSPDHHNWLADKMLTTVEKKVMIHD
Sequence of 5-hydroxytryptamine receptor 2A (P28223 whole entry): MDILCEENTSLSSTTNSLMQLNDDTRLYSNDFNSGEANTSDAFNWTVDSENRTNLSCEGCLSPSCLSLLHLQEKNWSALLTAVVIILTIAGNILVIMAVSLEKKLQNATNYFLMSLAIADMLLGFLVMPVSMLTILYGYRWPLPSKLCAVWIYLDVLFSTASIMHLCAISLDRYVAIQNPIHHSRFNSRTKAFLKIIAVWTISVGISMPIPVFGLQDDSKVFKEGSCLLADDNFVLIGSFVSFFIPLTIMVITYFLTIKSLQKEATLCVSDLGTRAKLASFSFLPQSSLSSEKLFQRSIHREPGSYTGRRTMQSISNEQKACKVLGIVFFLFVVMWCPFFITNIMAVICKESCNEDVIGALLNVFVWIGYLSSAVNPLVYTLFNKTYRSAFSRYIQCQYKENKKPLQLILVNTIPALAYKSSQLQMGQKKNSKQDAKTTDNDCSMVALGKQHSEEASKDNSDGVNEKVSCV
Sequence of 5-hydroxytryptamine receptor 1E (P28566 whole entry): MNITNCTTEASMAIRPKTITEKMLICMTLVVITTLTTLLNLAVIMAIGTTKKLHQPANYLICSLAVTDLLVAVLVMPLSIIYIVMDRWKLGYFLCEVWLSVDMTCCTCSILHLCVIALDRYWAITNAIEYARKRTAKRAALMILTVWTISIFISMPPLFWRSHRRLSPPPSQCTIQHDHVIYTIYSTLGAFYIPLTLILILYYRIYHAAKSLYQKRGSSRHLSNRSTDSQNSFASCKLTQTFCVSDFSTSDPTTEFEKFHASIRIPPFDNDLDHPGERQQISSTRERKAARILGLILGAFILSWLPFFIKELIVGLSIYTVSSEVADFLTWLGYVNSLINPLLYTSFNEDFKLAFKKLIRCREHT
Sequence of 5-hydroxytryptamine receptor 1D (P28221 whole entry): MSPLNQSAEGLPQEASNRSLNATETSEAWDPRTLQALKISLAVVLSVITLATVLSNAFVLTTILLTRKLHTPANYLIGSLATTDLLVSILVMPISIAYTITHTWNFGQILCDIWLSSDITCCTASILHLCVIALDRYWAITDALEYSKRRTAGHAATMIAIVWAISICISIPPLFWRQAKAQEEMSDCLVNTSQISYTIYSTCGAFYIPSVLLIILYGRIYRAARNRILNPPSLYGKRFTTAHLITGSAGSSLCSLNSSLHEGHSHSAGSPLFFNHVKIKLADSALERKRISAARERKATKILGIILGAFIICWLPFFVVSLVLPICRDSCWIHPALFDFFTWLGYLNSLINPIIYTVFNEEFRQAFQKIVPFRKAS
For the compound `Oc1ccccc1C1=N[C@@H]2CCC[C@@H]2S1` (racemic), the inhibition constant Ki (commonly the equilibrium dissociation constant of an inhibitor or competing ligand from its target) is > 10 µM.
`C[C@@H]1SC(c2c[nH]c3ccccc23)=N[C@H]1CO` (relative stereo): the inhibition constant (Ki) is > 10 µM.
In the case of `C[C@@H]1SC(c2ccccc2)=N[C@H]1CO` (relative stereo), the Ki is > 10 µM.
With `C[C@@H]1SC(c2cccs2)=N[C@H]1CO` (relative stereo), the inhibition constant Ki was > 10 µM.

Another assay deals with 5-hydroxytryptamine receptor 6 (Homo sapiens, UniProt P50406). The assay is described as follows: Displacement of [3H]-LSD from human 5-HT6 receptor expressed in HEK cells after 90 mins by microbeta scintillation counting analysis. The format is cell-based.
Sequence of 5-hydroxytryptamine receptor 6 (P50406 whole entry): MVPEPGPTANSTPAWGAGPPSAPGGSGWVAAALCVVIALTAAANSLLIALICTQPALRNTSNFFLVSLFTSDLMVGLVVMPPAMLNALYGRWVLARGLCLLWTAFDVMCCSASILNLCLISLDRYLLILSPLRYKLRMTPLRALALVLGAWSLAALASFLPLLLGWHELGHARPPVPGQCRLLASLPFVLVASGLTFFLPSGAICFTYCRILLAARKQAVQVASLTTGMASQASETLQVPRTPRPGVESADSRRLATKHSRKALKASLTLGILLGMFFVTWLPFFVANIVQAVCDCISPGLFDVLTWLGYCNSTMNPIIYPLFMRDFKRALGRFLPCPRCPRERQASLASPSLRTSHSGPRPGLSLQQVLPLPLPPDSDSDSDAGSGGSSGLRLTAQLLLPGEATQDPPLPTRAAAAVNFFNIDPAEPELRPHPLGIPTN
In the case of `Oc1ccccc1C1=N[C@@H]2CCC[C@@H]2S1` (racemic), the inhibition constant (Ki) is > 10 µM.
Take `C[C@@H]1SC(c2c[nH]c3ccccc23)=N[C@H]1CO` (relative stereo): the inhibition constant (Ki) is > 10 µM.
As to `C[C@@H]1SC(c2ccccc2)=N[C@H]1CO` (relative stereo), the inhibition constant (Ki) was > 10 µM.
On to `C[C@@H]1SC(c2cccs2)=N[C@H]1CO` (relative stereo), for which the Ki was > 10 µM.

For a further assay, the target named is T1, 5-hydroxytryptamine receptor 3A (Homo sapiens, UniProt P46098).
T1 sequence (P46098 whole entry): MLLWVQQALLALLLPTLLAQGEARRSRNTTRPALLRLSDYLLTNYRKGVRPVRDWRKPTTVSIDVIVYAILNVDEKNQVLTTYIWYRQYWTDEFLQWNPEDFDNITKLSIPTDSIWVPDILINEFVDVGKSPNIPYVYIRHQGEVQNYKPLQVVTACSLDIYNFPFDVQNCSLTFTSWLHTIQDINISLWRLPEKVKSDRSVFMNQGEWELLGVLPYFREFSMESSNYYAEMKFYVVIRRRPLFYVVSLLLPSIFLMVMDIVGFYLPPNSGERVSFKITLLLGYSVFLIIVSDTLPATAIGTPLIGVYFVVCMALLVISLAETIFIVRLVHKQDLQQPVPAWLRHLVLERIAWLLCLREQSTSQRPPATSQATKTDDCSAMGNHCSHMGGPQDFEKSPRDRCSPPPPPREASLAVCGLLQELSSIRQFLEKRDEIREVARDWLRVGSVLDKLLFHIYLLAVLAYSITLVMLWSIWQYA
The assay is described as follows: Displacement of [3H]-GR65630 from human 5-HT3 receptor expressed in HEKT cells after 90 mins by microbeta scintillation counting analysis. The format is cell-based.
Regarding `Oc1ccccc1C1=N[C@@H]2CCC[C@@H]2S1` (racemic), the inhibition constant (Ki) is > 10 µM.
In turn, `C[C@@H]1SC(c2c[nH]c3ccccc23)=N[C@H]1CO` (relative stereo) showed an inhibitory constant (Ki) of 2.8 µM.
In turn, `C[C@@H]1SC(c2ccccc2)=N[C@H]1CO` (relative stereo) gave an inhibitory constant (Ki) of 6.7 µM.
Take `C[C@@H]1SC(c2cccs2)=N[C@H]1CO` (relative stereo): the inhibition constant (Ki) is > 10 µM.

The next assay deals with 5-hydroxytryptamine receptor 1B (Homo sapiens, UniProt P28222). The assay is described as follows: Displacement of [3H]5-CT from human 5-HT1B receptor expressed in HEK cells after 90 mins by microbeta scintillation counting analysis. The format is cell-based.
Sequence of 5-hydroxytryptamine receptor 1B (P28222 whole entry): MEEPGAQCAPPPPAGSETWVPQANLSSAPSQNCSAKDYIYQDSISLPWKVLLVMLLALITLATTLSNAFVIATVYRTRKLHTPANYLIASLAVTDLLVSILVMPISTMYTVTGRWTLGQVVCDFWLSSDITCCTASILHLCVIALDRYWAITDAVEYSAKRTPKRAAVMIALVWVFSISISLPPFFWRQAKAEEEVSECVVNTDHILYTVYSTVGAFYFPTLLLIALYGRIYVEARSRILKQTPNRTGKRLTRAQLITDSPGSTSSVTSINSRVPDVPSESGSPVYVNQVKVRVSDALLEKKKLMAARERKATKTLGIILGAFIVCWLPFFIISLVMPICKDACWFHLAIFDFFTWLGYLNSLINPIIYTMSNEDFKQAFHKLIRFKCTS
With `Oc1ccccc1C1=N[C@@H]2CCC[C@@H]2S1` (racemic), the inhibition constant (Ki) is > 10 µM.
Take `C[C@@H]1SC(c2c[nH]c3ccccc23)=N[C@H]1CO` (relative stereo): the Ki was > 10 µM.
As for `C[C@@H]1SC(c2ccccc2)=N[C@H]1CO` (relative stereo), the Ki is > 10 µM.
For `C[C@@H]1SC(c2cccs2)=N[C@H]1CO` (relative stereo), the inhibitory constant (Ki) was > 10 µM.

Another assay has as its target 5-hydroxytryptamine receptor 2A (Homo sapiens, UniProt P28223). The assay is described as follows: Displacement of [3H]Ketanserin from 5-HT2A (unknown origin) receptor after 90 mins by microbeta scintillation counting analysis.
Consider `Oc1ccccc1C1=N[C@@H]2CCC[C@@H]2S1` (racemic), for which the Ki is > 10 µM.
Still for that read-out and setting: in the case of `C[C@@H]1SC(c2c[nH]c3ccccc23)=N[C@H]1CO` (relative stereo) it was > 10 µM; in that of `C[C@@H]1SC(c2ccccc2)=N[C@H]1CO` (relative stereo), > 10 µM.
On to `C[C@@H]1SC(c2cccs2)=N[C@H]1CO` (relative stereo), for which the inhibition constant Ki is > 10 µM.

For a further assay, the target named is T2, 5-hydroxytryptamine receptor 2C (Homo sapiens, UniProt P28335).
T2 sequence (P28335 whole entry): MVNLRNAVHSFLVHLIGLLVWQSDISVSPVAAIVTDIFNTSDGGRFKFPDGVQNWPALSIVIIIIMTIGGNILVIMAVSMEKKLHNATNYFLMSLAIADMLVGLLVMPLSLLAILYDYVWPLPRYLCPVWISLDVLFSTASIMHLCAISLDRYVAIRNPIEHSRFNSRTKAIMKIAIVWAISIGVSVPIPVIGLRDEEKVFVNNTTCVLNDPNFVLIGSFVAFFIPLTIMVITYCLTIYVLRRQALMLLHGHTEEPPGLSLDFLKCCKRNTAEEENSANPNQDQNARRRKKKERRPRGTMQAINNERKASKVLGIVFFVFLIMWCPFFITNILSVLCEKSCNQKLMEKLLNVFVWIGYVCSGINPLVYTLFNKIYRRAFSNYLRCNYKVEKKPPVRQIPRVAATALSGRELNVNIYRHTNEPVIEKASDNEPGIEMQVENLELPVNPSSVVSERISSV
The assay is described as follows: Displacement of [3H]-Mesulergine from human 5-HT2C receptor expressed in HEKT cells after 90 mins by microbeta scintillation counting analysis. The format is cell-based.
Turning to `Oc1ccccc1C1=N[C@@H]2CCC[C@@H]2S1` (racemic), the Ki was > 10 µM.
Consider `C[C@@H]1SC(c2c[nH]c3ccccc23)=N[C@H]1CO` (relative stereo), for which the inhibition constant Ki is 5.4 µM.
For the compound `C[C@@H]1SC(c2ccccc2)=N[C@H]1CO` (relative stereo), the inhibition constant Ki worked out at 35 µM.
The compound `C[C@@H]1SC(c2cccs2)=N[C@H]1CO` (relative stereo) had a Ki of 2.2 µM.

The target of a further assay is 5-hydroxytryptamine receptor 2B (Homo sapiens, UniProt P41595). The assay is described as follows: Displacement of [3H]-LSD from human 5-HT2B receptor expressed in HEK cells after 90 mins by microbeta scintillation counting analysis. The format is cell-based.
Sequence of 5-hydroxytryptamine receptor 2B (P41595 whole entry): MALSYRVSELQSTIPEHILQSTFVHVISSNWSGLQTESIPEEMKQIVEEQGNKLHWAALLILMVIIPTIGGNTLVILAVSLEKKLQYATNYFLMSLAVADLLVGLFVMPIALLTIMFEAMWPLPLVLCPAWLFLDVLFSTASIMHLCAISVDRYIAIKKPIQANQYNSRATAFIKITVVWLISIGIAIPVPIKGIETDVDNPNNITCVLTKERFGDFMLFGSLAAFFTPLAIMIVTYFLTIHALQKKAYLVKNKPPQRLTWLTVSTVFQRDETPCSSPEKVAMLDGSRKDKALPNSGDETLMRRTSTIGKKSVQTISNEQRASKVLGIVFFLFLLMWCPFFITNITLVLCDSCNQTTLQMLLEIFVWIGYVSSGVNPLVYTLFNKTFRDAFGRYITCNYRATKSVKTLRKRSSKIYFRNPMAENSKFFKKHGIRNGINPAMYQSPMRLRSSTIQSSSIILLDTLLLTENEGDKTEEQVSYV
With `Oc1ccccc1C1=N[C@@H]2CCC[C@@H]2S1` (racemic), the inhibitory constant (Ki) is > 10 µM.
Take `C[C@@H]1SC(c2c[nH]c3ccccc23)=N[C@H]1CO` (relative stereo): the Ki was found to be 2.4 µM.
Consider `C[C@@H]1SC(c2ccccc2)=N[C@H]1CO` (relative stereo), for which the inhibition constant Ki is 3 µM.
On to `C[C@@H]1SC(c2cccs2)=N[C@H]1CO` (relative stereo), for which the Ki was determined as 1.4 µM.

The next assay concerns the target 5-hydroxytryptamine receptor 7 (Homo sapiens, UniProt P34969). The assay is described as follows: Displacement of [3H]-LSD from human 5-HT7A receptor expressed in HEK cells after 90 mins by microbeta scintillation counting analysis. The format is cell-based.
In the case of `Oc1ccccc1C1=N[C@@H]2CCC[C@@H]2S1` (racemic), the inhibition constant Ki was > 10 µM.
For `C[C@@H]1SC(c2c[nH]c3ccccc23)=N[C@H]1CO` (relative stereo), the Ki is > 10 µM.
Turning to `C[C@@H]1SC(c2ccccc2)=N[C@H]1CO` (relative stereo), the Ki was > 10 µM.
Still for that read-out and setting: in the case of `C[C@@H]1SC(c2cccs2)=N[C@H]1CO` (relative stereo) it was > 10 µM.

In another assay the target is 5-hydroxytryptamine receptor 5A (Homo sapiens, UniProt P47898). The assay is described as follows: Displacement of [3H]-LSD from human 5-HT5A receptor expressed in Flp-In CHO cells after 90 mins by microbeta scintillation counting analysis. The format is cell-based.
Sequence of 5-hydroxytryptamine receptor 5A (P47898 whole entry): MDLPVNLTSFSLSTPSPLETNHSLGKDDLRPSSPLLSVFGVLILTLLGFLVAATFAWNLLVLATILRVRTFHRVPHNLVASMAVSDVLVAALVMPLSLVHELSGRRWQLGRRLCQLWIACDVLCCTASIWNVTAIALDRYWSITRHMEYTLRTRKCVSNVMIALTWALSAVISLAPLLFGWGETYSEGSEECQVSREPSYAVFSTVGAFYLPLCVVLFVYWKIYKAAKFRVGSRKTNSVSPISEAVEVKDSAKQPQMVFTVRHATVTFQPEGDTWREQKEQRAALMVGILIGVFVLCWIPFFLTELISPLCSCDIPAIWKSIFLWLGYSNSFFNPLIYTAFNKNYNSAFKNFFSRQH
On to `Oc1ccccc1C1=N[C@@H]2CCC[C@@H]2S1` (racemic), for which the Ki was > 10 µM.
For `C[C@@H]1SC(c2c[nH]c3ccccc23)=N[C@H]1CO` (relative stereo), the Ki is > 10 µM.
For the compound `C[C@@H]1SC(c2ccccc2)=N[C@H]1CO` (relative stereo), the inhibition constant Ki is > 10 µM.
`C[C@@H]1SC(c2cccs2)=N[C@H]1CO` (relative stereo): the inhibition constant Ki was > 10 µM.

Another assay has as its target 5-hydroxytryptamine receptor 1D (Homo sapiens, UniProt P28221). The assay is described as follows: Displacement of [3H]5-CT from human 5-HT1D receptor expressed in HEKT cells after 90 mins by microbeta scintillation counting analysis. The format is cell-based.
In the case of `Oc1ccccc1C1=N[C@@H]2CCC[C@@H]2S1` (racemic), the inhibition constant (Ki) was > 10 µM.
Still for that read-out and setting: as for `C[C@@H]1SC(c2c[nH]c3ccccc23)=N[C@H]1CO` (relative stereo), the figure is 2.7 µM.
Consider `C[C@@H]1SC(c2ccccc2)=N[C@H]1CO` (relative stereo), for which the affinity, expressed as Ki, was 5.3 µM.
Same read-out and setting: in the case of `C[C@@H]1SC(c2cccs2)=N[C@H]1CO` (relative stereo) it was > 10 µM.

Values taken from ChEMBL document CHEMBL4190286, “Modulating the Serotonin Receptor Spectrum of Pulicatin Natural Products” (J Nat Prod, 2017).
